# Results: PubChem BioAssay (NCI)
#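 Step 1: Grow cells in 96-well plates. Step 2: Expose to compound for 48 hours at 5 concentrations. Step 3: Interpolate endpoints linearly; if unreached, use highest concentration. TGI is the concentration that stops growth completely.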
# Key:
# Experiment in all cases: DTP human tumour cell line panel, 48 h
# 786-0 renal = test system: 786-0 renal
# A498 renal = test system: A498 renal
# A549 NSCLC = test system: A549 NSCLC
# ACHN renal = test system: ACHN renal
# BT-549 breast = test system: BT-549 breast
# CAKI-1 renal = test system: CAKI-1 renal
# CCRF-CEM leukemia = test system: CCRF-CEM leukemia
# COLO 205 colon = test system: COLO 205 colon
# DLD-1 colon = test system: DLD-1 colon
# DMS 114 small cell lung = test system: DMS 114 small cell lung
# DU-145 prostate = test system: DU-145 prostate
# EKVX NSCLC = test system: EKVX NSCLC
# HCC-2998 colon = test system: HCC-2998 colon
# HCT-116 colon = test system: HCT-116 colon
# HCT-15 colon = test system: HCT-15 colon
# HL-60(TB) leukemia = test system: HL-60(TB) leukemia
# HOP-62 NSCLC = test system: HOP-62 NSCLC
# HOP-92 NSCLC = test system: HOP-92 NSCLC
# HS 578T breast = test system: HS 578T breast
# HT29 colon = test system: HT29 colon
# IGROV1 ovarian = test system: IGROV1 ovarian
# K-562 leukemia = test system: K-562 leukemia
# KM12 colon = test system: KM12 colon
# KM20L2 colon = test system: KM20L2 colon
# LOX IMVI melanoma = test system: LOX IMVI melanoma
# LXFL 529 NSCLC = test system: LXFL 529 NSCLC
# M14 melanoma = test system: M14 melanoma
# MALME-3M melanoma = test system: MALME-3M melanoma
# MCF7 breast = test system: MCF7 breast
# MDA-MB-231 breast = test system: MDA-MB-231 breast
# MDA-MB-435 = test system: MDA-MB-435
# MDA-N = test system: MDA-N
# MOLT-4 leukemia = test system: MOLT-4 leukemia
# NCI-H226 lung = test system: NCI-H226 lung
# NCI-H23 lung = test system: NCI-H23 lung
# NCI-H460 lung = test system: NCI-H460 lung
# NCI-H522 lung = test system: NCI-H522 lung
# NCI/ADR-RES ovarian = test system: NCI/ADR-RES ovarian
# OVCAR-3 ovarian = test system: OVCAR-3 ovarian
# OVCAR-4 ovarian = test system: OVCAR-4 ovarian
# OVCAR-5 ovarian = test system: OVCAR-5 ovarian
# OVCAR-8 ovarian = test system: OVCAR-8 ovarian
# PC-3 prostate = test system: PC-3 prostate
# RPMI-8226 leukemia = test system: RPMI-8226 leukemia
# RXF 393 renal = test system: RXF 393 renal
# RXF-631 renal = test system: RXF-631 renal
# SF-268 CNS = test system: SF-268 CNS
# SF-295 CNS = test system: SF-295 CNS
# SF-539 CNS = test system: SF-539 CNS
# SK-MEL-2 melanoma = test system: SK-MEL-2 melanoma
# SK-MEL-28 melanoma = test system: SK-MEL-28 melanoma
# SK-MEL-5 melanoma = test system: SK-MEL-5 melanoma
# SK-OV-3 ovarian = test system: SK-OV-3 ovarian
# SN12C renal = test system: SN12C renal
# SNB-19 CNS = test system: SNB-19 CNS
# SNB-75 CNS = test system: SNB-75 CNS
# SR leukemia = test system: SR leukemia
# SW-620 colon = test system: SW-620 colon
# T-47D breast = test system: T-47D breast
# TK-10 renal = test system: TK-10 renal
# U251 CNS = test system: U251 CNS
# UACC-257 melanoma = test system: UACC-257 melanoma
# UACC-62 melanoma = test system: UACC-62 melanoma
# UO-31 renal = test system: UO-31 renal
# XF 498 CNS = test system: XF 498 CNS
# DMS 273 small cell lung = test system: DMS 273 small cell lung
# M19-MEL melanoma = test system: M19-MEL melanoma
# SNB-78 CNS = test system: SNB-78 CNS
smiles,measurement,setting,value
CC1c2ccccc2Cn2cc3c(c21)C(=O)c1cccc(OP(=O)(O)OCc2ccccc2)c1C3=O (stereo not drawn),TGI,786-0 renal,> 100 µM
same,TGI,A498 renal,> 100 µM
same,TGI,A549 NSCLC,> 100 µM
same,TGI,ACHN renal,> 100 µM
same,TGI,BT-549 breast,> 100 µM
same,TGI,CAKI-1 renal,> 100 µM
same,TGI,CCRF-CEM leukemia,> 100 µM
same,TGI,COLO 205 colon,> 100 µM
same,TGI,DLD-1 colon,> 100 µM
same,TGI,DMS 114 small cell lung,> 100 µM
same,TGI,DU-145 prostate,> 100 µM
same,TGI,EKVX NSCLC,> 100 µM
same,TGI,HCC-2998 colon,> 100 µM
same,TGI,HCT-116 colon,> 100 µM
same,TGI,HCT-15 colon,> 100 µM
same,TGI,HL-60(TB) leukemia,> 77.3 µM
same,TGI,HOP-62 NSCLC,> 100 µM
same,TGI,HOP-92 NSCLC,> 100 µM
same,TGI,HS 578T breast,> 100 µM
same,TGI,HT29 colon,> 100 µM
same,TGI,IGROV1 ovarian,> 100 µM
same,TGI,K-562 leukemia,> 100 µM
same,TGI,KM12 colon,> 100 µM
same,TGI,KM20L2 colon,> 100 µM
same,TGI,LOX IMVI melanoma,> 100 µM
same,TGI,LXFL 529 NSCLC,> 100 µM
same,TGI,M14 melanoma,> 100 µM
same,TGI,MALME-3M melanoma,> 100 µM
same,TGI,MCF7 breast,> 100 µM
same,TGI,MDA-MB-231 breast,> 100 µM
same,TGI,MDA-MB-435,> 100 µM
same,TGI,MDA-N,> 100 µM
same,TGI,MOLT-4 leukemia,> 100 µM
same,TGI,NCI-H226 lung,> 100 µM
same,TGI,NCI-H23 lung,> 100 µM
same,TGI,NCI-H460 lung,> 100 µM
same,TGI,NCI-H522 lung,> 100 µM
same,TGI,NCI/ADR-RES ovarian,> 100 µM
same,TGI,OVCAR-3 ovarian,> 100 µM
same,TGI,OVCAR-4 ovarian,> 100 µM
same,TGI,OVCAR-5 ovarian,> 100 µM
same,TGI,OVCAR-8 ovarian,> 100 µM
same,TGI,PC-3 prostate,> 100 µM
same,TGI,RPMI-8226 leukemia,> 100 µM
same,TGI,RXF 393 renal,> 100 µM
same,TGI,RXF-631 renal,> 100 µM
same,TGI,SF-268 CNS,> 100 µM
same,TGI,SF-295 CNS,> 100 µM
same,TGI,SF-539 CNS,> 100 µM
same,TGI,SK-MEL-2 melanoma,> 100 µM
same,TGI,SK-MEL-28 melanoma,> 100 µM
same,TGI,SK-MEL-5 melanoma,> 100 µM
same,TGI,SK-OV-3 ovarian,> 100 µM
same,TGI,SN12C renal,> 100 µM
same,TGI,SNB-19 CNS,> 100 µM
same,TGI,SNB-75 CNS,> 100 µM
same,TGI,SR leukemia,> 100 µM
same,TGI,SW-620 colon,> 100 µM
same,TGI,T-47D breast,> 100 µM
same,TGI,TK-10 renal,> 100 µM
same,TGI,U251 CNS,> 100 µM
same,TGI,UACC-257 melanoma,> 100 µM
same,TGI,UACC-62 melanoma,> 100 µM
same,TGI,UO-31 renal,> 100 µM
same,TGI,XF 498 CNS,> 100 µM
CNS(=O)(=O)NN(C)S(=O)(=O)c1ccc(OC)cc1,TGI,786-0 renal,> 100 µM
same,TGI,A498 renal,> 100 µM
same,TGI,A549 NSCLC,> 100 µM
same,TGI,ACHN renal,> 100 µM
same,TGI,CAKI-1 renal,> 100 µM
same,TGI,CCRF-CEM leukemia,> 100 µM
same,TGI,COLO 205 colon,> 100 µM
same,TGI,DLD-1 colon,> 100 µM
same,TGI,DMS 114 small cell lung,> 100 µM
same,TGI,DMS 273 small cell lung,> 100 µM
same,TGI,EKVX NSCLC,> 100 µM
same,TGI,HCC-2998 colon,> 100 µM
same,TGI,HCT-116 colon,> 100 µM
same,TGI,HCT-15 colon,> 100 µM
same,TGI,HL-60(TB) leukemia,> 100 µM
same,TGI,HOP-62 NSCLC,> 100 µM
same,TGI,HT29 colon,> 100 µM
same,TGI,IGROV1 ovarian,> 100 µM
same,TGI,K-562 leukemia,> 100 µM
same,TGI,KM12 colon,> 100 µM
same,TGI,KM20L2 colon,> 100 µM
same,TGI,LOX IMVI melanoma,> 100 µM
same,TGI,LXFL 529 NSCLC,> 100 µM
same,TGI,M14 melanoma,> 100 µM
same,TGI,M19-MEL melanoma,> 100 µM
same,TGI,MALME-3M melanoma,> 100 µM
same,TGI,MOLT-4 leukemia,> 100 µM
same,TGI,NCI-H226 lung,> 100 µM
same,TGI,NCI-H23 lung,> 100 µM
same,TGI,NCI-H522 lung,> 100 µM
same,TGI,OVCAR-4 ovarian,> 100 µM
same,TGI,OVCAR-8 ovarian,> 100 µM
same,TGI,RPMI-8226 leukemia,> 100 µM
same,TGI,RXF 393 renal,> 100 µM
same,TGI,RXF-631 renal,> 100 µM
same,TGI,SF-268 CNS,> 100 µM
same,TGI,SF-295 CNS,> 100 µM
same,TGI,SF-539 CNS,> 100 µM
same,TGI,SK-MEL-2 melanoma,> 100 µM
same,TGI,SK-MEL-5 melanoma,> 100 µM
same,TGI,SN12C renal,> 100 µM
same,TGI,SNB-19 CNS,> 100 µM
same,TGI,SNB-75 CNS,> 100 µM
same,TGI,SR leukemia,> 100 µM
same,TGI,SW-620 colon,> 100 µM
same,TGI,TK-10 renal,> 100 µM
same,TGI,U251 CNS,> 100 µM
same,TGI,UACC-257 melanoma,> 100 µM
same,TGI,UACC-62 melanoma,> 100 µM
same,TGI,UO-31 renal,> 100 µM
same,TGI,XF 498 CNS,> 100 µM
O=c1c2ccccc2nc(-c2ccccc2Cl)n1NCC1(O)OCC(O)C(O)C1O (stereo not drawn),TGI,786-0 renal,> 100 µM
same,TGI,A498 renal,> 100 µM
same,TGI,A549 NSCLC,> 100 µM
same,TGI,ACHN renal,> 100 µM
same,TGI,CAKI-1 renal,> 100 µM
same,TGI,CCRF-CEM leukemia,> 100 µM
same,TGI,COLO 205 colon,> 100 µM
same,TGI,DMS 114 small cell lung,> 100 µM
same,TGI,DMS 273 small cell lung,> 100 µM
same,TGI,EKVX NSCLC,> 100 µM
same,TGI,HCT-116 colon,> 100 µM
same,TGI,HCT-15 colon,> 100 µM
same,TGI,HL-60(TB) leukemia,> 100 µM
same,TGI,HT29 colon,> 100 µM
same,TGI,K-562 leukemia,> 100 µM
same,TGI,KM12 colon,> 100 µM
same,TGI,KM20L2 colon,> 100 µM
same,TGI,LOX IMVI melanoma,> 100 µM
same,TGI,LXFL 529 NSCLC,> 100 µM
same,TGI,M14 melanoma,> 100 µM
same,TGI,M19-MEL melanoma,> 100 µM
same,TGI,MALME-3M melanoma,> 100 µM
same,TGI,MOLT-4 leukemia,> 100 µM
same,TGI,NCI-H23 lung,> 100 µM
same,TGI,NCI-H460 lung,> 100 µM
same,TGI,NCI-H522 lung,> 100 µM
same,TGI,OVCAR-3 ovarian,> 100 µM
same,TGI,OVCAR-4 ovarian,> 100 µM
same,TGI,OVCAR-5 ovarian,> 100 µM
same,TGI,OVCAR-8 ovarian,> 100 µM
same,TGI,RPMI-8226 leukemia,> 100 µM
same,TGI,RXF 393 renal,> 100 µM
same,TGI,RXF-631 renal,> 100 µM
same,TGI,SF-268 CNS,> 100 µM
same,TGI,SF-295 CNS,> 100 µM
same,TGI,SF-539 CNS,> 100 µM
same,TGI,SK-MEL-2 melanoma,> 100 µM
same,TGI,SK-MEL-28 melanoma,> 100 µM
same,TGI,SK-MEL-5 melanoma,> 100 µM
same,TGI,SK-OV-3 ovarian,> 100 µM
same,TGI,SN12C renal,> 100 µM
same,TGI,SNB-19 CNS,> 100 µM
same,TGI,SNB-75 CNS,> 100 µM
same,TGI,SNB-78 CNS,> 100 µM
same,TGI,SR leukemia,> 100 µM
same,TGI,SW-620 colon,> 100 µM
same,TGI,TK-10 renal,> 100 µM
same,TGI,U251 CNS,> 100 µM
same,TGI,UACC-257 melanoma,> 100 µM
same,TGI,UACC-62 melanoma,> 100 µM
same,TGI,UO-31 renal,> 100 µM
same,TGI,XF 498 CNS,> 100 µM
